In one assay the target is T1, p38α (Homo sapiens, UniProt Q16539).
T1 construct: 6-His (cleaved yes); made in house; host or cells: E. coli BL21 (DE3)
The experiment in a line: WIP1 phosphatase assay: dephosphorylation of 32P-labelled dual-phosphorylated p38α bound to inhibitor. The assay is classed as biochemical. The settings on record: p38α 0.25 μM, WIP1 2.5 μM, inhibitor 1.25 μM. How it is done: (§1) Following initial incubation, excess cold ATP was added for a final concentration of 12 mM and was incubated overnight. Unincorporated nucleotide was removed by buffer exchange using a Zeba™ spin column equilibrated in 50 mM K·HEPES pH7.5, 100 mM NaCl. 6His-MKK6^EE was then removed by Ni-NTA resin equilibrated in 50 mM K·HEPES pH7.5, 100 mM NaCl, 20 mM imidazole. The flow-through fraction from the Ni-NTA resin containing p38-^32P was then exchanged into 50 mM K·HEPES pH7.5, 100 mM NaCl buffer using 3 subsequent Zeba spin columns to remove all unincorporated nucleotide and free phosphate. Labeled p38-^32P was aliquoted and frozen at −80° C. for future use.
WIP1 and PPM1A: All WIP1 phosphatase assays were performed at room temperature in 50 mM K HEPES pH7.5, 0.8 mM CHAPS, 0.05 mg/mL BSA, and 15 mM MnCl2. WIP1 concentration was 2.5 μM, PPM1A concentration was 0.5 μM and p38-^32P was 0.25 μM unless otherwise stated. […] Reactions were stopped with 0.5 MEDTA, pH8.0 and run on PEI-Cellulose TLC plates developed in 1 M LiCl2 and 0.8 M acetic acid and imaged on a Typhoon™ scanner. Phosphatase assays were performed more than three independent times as separate experiments. Data shown in figures is from a single representative experiment, and reported errors are the error from the fit unless indicated otherwise.

Assay [1] relates to p38α phosphorylation in HL60 cells. In words: Western blot of p38α phosphorylation in HL60 cells after TNFα or LPS stimulation. It counts as cell-based, human. The settings on record: for level of dual-phosphorylated p38α in HL60 cells: 10 μM inhibitor 30 minutes after stimulation with TNFα (40 ng/mL) or LPS; for level of dual-phosphorylated p38α in HL60 cells / threonine phosphorylation of p38α in HL60 cells (phospho-site specific antibody) / single-tyrosine phosphorylated p38α / phospho-tyrosine in HL60 cells (phospho-site specific antibody): western blot; for threonine phosphorylation of p38α in HL60 cells (phospho-site specific antibody) / single-tyrosine phosphorylated p38α / phospho-tyrosine in HL60 cells (phospho-site specific antibody): 10 μM inhibitor after TNFα stimulation; for p38α threonine phosphorylation in cells harvested immediately after addition of inhibitor: cells pretreated with TNFα. How it is done:
Cell culture, reagents and antibodies: HL60 cells were maintained in RPM I media supplemented with 2 mM L-glutamine and 10% fetal bovine serum (FBS) at 37° C. in a humidified atmosphere of 5% CO2. HL60-APPM1A were generated. The following antibodies were obtained from Cell Signaling Technologies (Danvers, MA); PPM1A (cat. #3549), p38 (cat. #9212) and 2p-p38 (cat. #4511). The following antibodies were obtained from A B Clonal (Woburn, MA); p38-phospho-Y182 (cat. #AP0057) and p38-phospho-T180 (cat. #AP0056). B-actin antibody (cat. #sc-47778) was obtained from Santa Cruz Biotechnology (Santa Cruz, CA). Recombinant human TNFα (cat. #300-01A) was obtained from Peprotech (Cranbury, NJ). Lipopolysaccharide (LPS) 500× solution (cat. #50-112-9325) was obtained from Invitrogen (Waltham, MA).
Cellular assays: HL60 cells were cultured in 6 well plates and grown until a density of 2 million cells/mL. […] Cells were spun down at 500 xg for 5 minutes, carefully washed with PBS once, and lysed with 50 μL RIPA buffer supplemented with 1:1000 phosphatase inhibitor and 1:500 benzonase. Lysates were centrifuged at 10,000 rpm for 15 minutes. Supernatant was harvested and lysate was either analyzed immediately or flash-frozen and stored at −80° C.
Western blot: Protein concentration of the lysate was determined using Bradford reagent normalized to a standard curve. 40-50 μg total protein per sample was separated on a 10% Tris-tricine polyacrylamide gel and then transferred to a polyvinylidene (PV DF) membrane using the Bio-Rad transfer system. Standard blotting protocol was followed. Primary antibodies (see antibody section) were incubated overnight at 4° C. followed by near-infrared (NIR) labeled secondary antibodies Goat anti-Rabbit IgG (H+L) Cross-Adsorbed Secondary Antibody, DyLight™ 800 (cat #. SA5-10036) or IgG (H+L) Cross-Adsorbed Goat anti-mouse, DyLight™ 680, Invitrogen™ (cat #. 35519) obtained from Invitrogen (Waltham, MA) for 1 hour at room temperature in 2.5% milk in TBST. Blots were washed and imaged on a LI-COR imaging instrument.
For orientation: Immunoblotting shows a protein as a band on a membrane.

In another assay the target is T2, p38α (T180A) (Homo sapiens, UniProt Q16539, T180A).
T2 construct: 6-His (cleaved yes); made in house; host or cells: E. coli BL21 (DE3)
T2 sequence (Q16539 whole entry T180A): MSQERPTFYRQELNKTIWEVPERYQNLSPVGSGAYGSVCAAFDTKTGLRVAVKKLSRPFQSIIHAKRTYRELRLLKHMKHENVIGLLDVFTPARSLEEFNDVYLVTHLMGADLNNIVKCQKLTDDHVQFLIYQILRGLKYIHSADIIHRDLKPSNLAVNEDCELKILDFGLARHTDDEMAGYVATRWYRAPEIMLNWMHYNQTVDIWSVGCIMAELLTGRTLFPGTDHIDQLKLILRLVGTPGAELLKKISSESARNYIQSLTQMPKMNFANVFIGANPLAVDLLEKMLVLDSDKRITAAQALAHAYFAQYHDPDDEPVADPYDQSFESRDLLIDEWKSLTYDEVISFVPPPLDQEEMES
The experiment in a line: DUSP3 dephosphorylation of single tyrosine phosphorylated p38α (T180A). The settings on record: DUSP3 15 μM, p38α T180A 0.25 μM, 5-fold excess inhibitor. The assay is classed as biochemical. How it is done: as §1
DUSP3: All DUSP3 phosphatase assays were performed in 50 mM K HEPES pH7.5 and 100 mM NaCl. Reactions were stopped with SDS and run on PEI-Cellulose TLC plates run through water then developed in 1 M LiCl2 and 0.8 M acetic acid and imaged on a Typhoon scanner. Phosphatase assays were performed more than three independent times as separate experiments. Data shown in figures is from a single representative experiment, and reported errors are the error from the fit unless indicated otherwise.
+p38^T180A_32P: Reactions were run at room temperature with 15 μM DUSP3 and 0.25 μM p38^T180A_32.

A further assay concerns T3, MKK6 (Homo sapiens).
T3 construct: made in house; host or cells: E. coli BL21 (DE3)
T3 sequence (Q16539 whole entry): as the sequence (Q16539 whole entry T180A) above, with A180T counted along it
The experiment in a line: Kinase assay: phosphorylation of p38α by MKK6. Particulars: biochemical assay; 50 μM inhibitor, 25 μM p38. How it is done:
Kinase assay: All kinase assays were performed at room temperature in 20 mM K HEPES PH7.5, 0.5 mMEDTA, 20 mM MgCl2 and 2 mM DTT. […] MKK6^EE was added to 25 μM p38, 25 μM cold ATP and 1 μCi of γ-^32P ATP. 50 μM p38 inhibitors were added to a final DMSO concentration of 5%. Reactions were stopped with SDS and run on PEI-Cellulose TLC plates run through water then developed in 1 M LiCl2 and 0.8 M acetic acid and imaged on a Typhoon™ scanner.

The target in the next assay is p38 (Homo sapiens, UniProt Q16539). Particulars: initial biochemical kinase screening; cited from earlier work.
Chain of p38 (Q16539 whole entry): as the sequence (Q16539 whole entry T180A) above, with A180T counted along it
Another assay has as its system MKK6. The settings on record: previous reports; cited from earlier work.
[2] abbreviates: single turnover, relative to DMSO control.

This is an account of results in patent US20250347680A1, “METHODS OF OPTIMIZING KINASE INHIBITORS” (Brandeis University, priority 2024, published 2025).

Each structure is given as a SMILES string.

T1 sequence (Q16539 whole entry): as the sequence (Q16539 whole entry T180A) above, with A180T counted along it

Take `NC(=O)c1ccc2[nH]ccc2c1` [SD-169]: the “effect on WIP1 threonine dephosphorylation of p38α (in words)” value at p38α is listed as “no change on phosphatase activity”.

As to `CC(C)(C)Cn1c(N)nc2ccc(-c3[nH]c(C(C)(C)C)nc3-c3ccc(F)cc3)nc21` [LY2228820], at p38α (setting [2]), the “decrease of the rate of threonine dephosphorylation of p38α by WIP1” value amounted to 5 fold. Besides, the “level of dual-phosphorylated p38α in HL60 cells” value (from here on “level”) in assay [1] is “increased”.

Regarding `Oc1ccc(-c2nc(-c3ccncc3)c(-c3ccc(F)cc3)[nH]2)cc1` [SB202190], the “decrease of the rate of threonine dephosphorylation of p38α by WIP1” value on p38α (setting [2]) is 5 fold. Besides, the “effect on rate of DUSP3 dephosphorylation of Y182 of p38α (T180A)” value at p38α (T180A) is “no effect”. Besides, in assay [1], the “level” value was “increased” and the “threonine phosphorylation of p38α in HL60 cells (phospho-site specific antibody)” value is given as “increased”.

In the case of `O=c1ncn2nc(Sc3ccc(F)cc3F)ccc2c1-c1c(Cl)cccc1Cl` [VX-745], the “effect on WIP1 threonine dephosphorylation of p38α (in words)” value on p38α is listed as “did not affect”. Further, in assay [1], the “level” value is recorded as “caused disappearance” and the “single-tyrosine phosphorylated p38α / phospho-tyrosine in HL60 cells (phospho-site specific antibody)” value was “did not accumulate”.

`Cc1cn(-c2cc(NC(=O)c3ccc(C)c(Nc4nccc(-c5cccnc5)n4)c3)cc(C(F)(F)F)c2)cn1` [nilotinib]: the “increase of the rate of threonine dephosphorylation of p38α by WIP1” value at p38α (setting [2]) is “four-fold”. In addition, the “effect on rate of DUSP3 dephosphorylation of Y182 of p38α (T180A)” value at p38α (T180A) is on record as “no effect”. In assay [1], the “level” value is given as “disappeared”, the “single-tyrosine phosphorylated p38α / phospho-tyrosine in HL60 cells (phospho-site specific antibody)” value is listed as “increase”, the “threonine phosphorylation of p38α in HL60 cells (phospho-site specific antibody)” value is given as “disappearance” and the “p38α threonine phosphorylation in cells harvested immediately after addition of inhibitor” value (shortened to “p38α threonine phosphorylation … of inhibitor”) is reported as “completely disappeared”. Also, the “threonine phosphorylation of p38α by MKK6” value with MKK6 (Homo sapiens) is listed as “did not impact”. Further, the “binding of p38 compared to primary target ABL” value at p38 is reported as “weak off-target binder”.

For `CCc1nc(-c2cccc(C)c2)c(-c2ccnc(NC(=O)c3ccccc3)c2)s1` [TAK-715], in assay [1], the “level” value is “caused disappearance” and the “single-tyrosine phosphorylated p38α / phospho-tyrosine in HL60 cells (phospho-site specific antibody)” value is given as “did not accumulate”.

Consider `Cc1ccc(-n2nc(C(C)(C)C)cc2NC(=O)Nc2ccc(OCCN3CCOCC3)c3ccccc23)cc1` [BIRB 796], for which, in assay [1], the “level” value is recorded as “disappeared”, the “single-tyrosine phosphorylated p38α / phospho-tyrosine in HL60 cells (phospho-site specific antibody)” value is given as “increase”, the “threonine phosphorylation of p38α in HL60 cells (phospho-site specific antibody)” value is given as “disappearance” and the “p38α threonine phosphorylation … of inhibitor” value is reported as “completely disappeared”. Moreover, the “MKK6 dual phosphorylation measured by ELISA” value with MKK6 was “block”.

Consider `Cc1ccc(-n2nc(C(C)(C)C)cc2NC(=O)NCc2cc(F)ccc2Oc2ccc3c(cnn3CCO)c2)cc1` [pexmetinib], for which, in assay [1], the “level” value is listed as “disappeared”, the “single-tyrosine phosphorylated p38α / phospho-tyrosine in HL60 cells (phospho-site specific antibody)” value is listed as “increase”, the “threonine phosphorylation of p38α in HL60 cells (phospho-site specific antibody)” value is “disappearance” and the “p38α threonine phosphorylation … of inhibitor” value is “completely disappeared”.

As to `Cc1c(F)cc(C(=O)NC2CC2)cc1-c1ccc(C(=O)NCC(C)(C)C)cn1` [losmapimod], in assay [1], the “level” value was “caused disappearance” and the “single-tyrosine phosphorylated p38α / phospho-tyrosine in HL60 cells (phospho-site specific antibody)” value is reported as “did not accumulate”.
